Data published in ChEMBL document CHEMBL1155854, “Conformationally constrained farnesoid X receptor (FXR) agonists: Naphthoic acid-based analogs of GW 4064” (Bioorg Med Chem Lett, 2008).
≈ marks a conversion by molar mass, not a printed value. Calls of active or inactive are those of the source. The calls are words filed in the database; no cut-off is given here.

Columns and labels:
Bile acid receptor = target: T1, Bile acid receptor (Homo sapiens, UniProt Q96RI1); test: Agonist activity at FXR expressed in african green monkey CV1 cells by luciferase reporter transient transfection assay; type: functional, cell-based, CV-1
T1 sequence (Q96RI1 whole entry): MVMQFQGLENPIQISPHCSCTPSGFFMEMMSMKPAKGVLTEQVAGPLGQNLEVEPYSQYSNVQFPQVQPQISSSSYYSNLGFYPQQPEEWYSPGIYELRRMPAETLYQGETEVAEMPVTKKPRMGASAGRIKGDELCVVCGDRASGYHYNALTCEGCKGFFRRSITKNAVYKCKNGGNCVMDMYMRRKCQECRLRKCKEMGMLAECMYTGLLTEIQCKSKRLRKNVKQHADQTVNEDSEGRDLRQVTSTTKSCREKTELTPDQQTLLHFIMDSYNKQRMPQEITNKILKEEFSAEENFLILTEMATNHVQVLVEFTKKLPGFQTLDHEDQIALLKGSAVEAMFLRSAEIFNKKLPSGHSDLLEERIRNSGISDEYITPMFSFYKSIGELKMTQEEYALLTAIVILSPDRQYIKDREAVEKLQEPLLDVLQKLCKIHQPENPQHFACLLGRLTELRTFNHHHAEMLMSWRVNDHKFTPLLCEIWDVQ

[1] = Oral bioavailability in rat at 30 mg/kg; type: ADME, organism-based; settings: in vivo
Rattus norvegicus [2] = test: Reduction of serum alkaline phosphatase level in alpha-naphthyl-isothiocyanate-induced rat acute cholestasis model at 100 to 300 mg/kg, po bid for 4 days dosed before 2 days induction by alpha-naphthyl-isothiocyanate; type: functional, organism-based
[3] = Volume of distribution at steady state in iv dosed cynomolgus monkey; type: ADME, organism-based, Macaca fascicularis; settings: in vivo, read-out: Vdss
[4] = Clearance in iv dosed rat; type: ADME, organism-based; settings: in vivo
[5] = Clearance in iv dosed Beagle dog; type: ADME, organism-based, Canis lupus familiaris; settings: in vivo
[6] = target: T2, Peroxisome proliferator-activated receptor alpha (Homo sapiens, UniProt Q07869); test: Agonist activity at PPARalpha by SPA assay; type: functional
T2 sequence (Q07869 whole entry): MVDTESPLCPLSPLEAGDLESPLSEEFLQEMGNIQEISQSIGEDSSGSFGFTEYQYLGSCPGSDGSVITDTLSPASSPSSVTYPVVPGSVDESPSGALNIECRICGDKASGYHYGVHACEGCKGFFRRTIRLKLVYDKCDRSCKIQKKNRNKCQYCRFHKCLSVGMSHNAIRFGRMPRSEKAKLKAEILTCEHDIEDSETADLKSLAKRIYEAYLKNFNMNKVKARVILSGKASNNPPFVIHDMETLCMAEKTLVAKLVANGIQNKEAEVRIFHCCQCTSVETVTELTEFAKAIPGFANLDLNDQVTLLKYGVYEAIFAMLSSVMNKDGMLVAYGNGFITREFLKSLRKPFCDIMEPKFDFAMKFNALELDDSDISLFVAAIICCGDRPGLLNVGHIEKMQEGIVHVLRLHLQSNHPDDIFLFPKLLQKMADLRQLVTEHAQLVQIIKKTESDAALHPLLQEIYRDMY

[7] = Selectivity for FXR over PXR
[8] = Solubility in fasted state-simulated intestinal fluid at pH 6.5; type: physicochemical; settings: simulated gi fluid
Cytochrome P450 1A2 = target: T3, Cytochrome P450 1A2 (Homo sapiens, UniProt P05177); test: Inhibition of CYP1A2 in pooled human liver microsome; type: ADME, microsomes
T3 sequence (P05177 whole entry): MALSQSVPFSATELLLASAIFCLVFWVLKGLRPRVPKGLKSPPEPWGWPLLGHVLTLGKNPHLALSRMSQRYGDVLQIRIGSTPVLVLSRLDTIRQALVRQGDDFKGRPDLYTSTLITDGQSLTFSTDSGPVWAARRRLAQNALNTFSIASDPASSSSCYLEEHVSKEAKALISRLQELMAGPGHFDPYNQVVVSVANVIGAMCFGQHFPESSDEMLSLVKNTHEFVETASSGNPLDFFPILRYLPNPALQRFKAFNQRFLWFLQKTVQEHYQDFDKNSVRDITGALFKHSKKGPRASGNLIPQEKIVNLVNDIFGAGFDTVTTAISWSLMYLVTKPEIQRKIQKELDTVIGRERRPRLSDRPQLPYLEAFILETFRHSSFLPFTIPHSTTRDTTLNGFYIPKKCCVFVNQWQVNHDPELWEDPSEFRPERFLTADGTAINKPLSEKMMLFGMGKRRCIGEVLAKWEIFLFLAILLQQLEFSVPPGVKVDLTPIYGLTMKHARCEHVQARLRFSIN

Rattus norvegicus [9] = test: Reduction of serum HDLC level in alpha-naphthyl-isothiocyanate-induced rat acute cholestasis model at 100 to 300 mg/kg, po bid for 4 days dosed before 2 days induction by alpha-naphthyl-isothiocyanate; type: functional, organism-based
[10] = Clearance in iv dosed cynomolgus monkey; type: ADME, organism-based, Macaca fascicularis; settings: in vivo
[11] = target: T4, Peroxisome proliferator-activated receptor delta (Homo sapiens, UniProt Q03181); test: Agonist activity at PPARdelta by transient transfection assay; type: functional
T4 sequence (Q03181 whole entry): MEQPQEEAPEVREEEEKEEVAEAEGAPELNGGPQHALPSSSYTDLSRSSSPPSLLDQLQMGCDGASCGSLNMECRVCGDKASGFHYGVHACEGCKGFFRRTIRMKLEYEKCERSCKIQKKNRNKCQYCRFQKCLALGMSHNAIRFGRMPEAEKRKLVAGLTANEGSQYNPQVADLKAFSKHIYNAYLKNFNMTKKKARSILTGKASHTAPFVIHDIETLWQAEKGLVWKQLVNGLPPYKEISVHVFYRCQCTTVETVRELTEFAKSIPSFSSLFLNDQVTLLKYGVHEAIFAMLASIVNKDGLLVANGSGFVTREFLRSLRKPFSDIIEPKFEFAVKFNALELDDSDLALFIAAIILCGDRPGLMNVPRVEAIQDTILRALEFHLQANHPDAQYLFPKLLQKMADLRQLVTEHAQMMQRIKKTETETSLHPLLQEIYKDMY

Cytochrome P450 3A4 = Cytochrome P450 3A4 (Homo sapiens, UniProt P08684); test: Inhibition of CYP3A4 in pooled human liver microsome using atrovastatin substrate; type: ADME, microsomes
Cytochrome P450 3A4, sequence (P08684 whole entry): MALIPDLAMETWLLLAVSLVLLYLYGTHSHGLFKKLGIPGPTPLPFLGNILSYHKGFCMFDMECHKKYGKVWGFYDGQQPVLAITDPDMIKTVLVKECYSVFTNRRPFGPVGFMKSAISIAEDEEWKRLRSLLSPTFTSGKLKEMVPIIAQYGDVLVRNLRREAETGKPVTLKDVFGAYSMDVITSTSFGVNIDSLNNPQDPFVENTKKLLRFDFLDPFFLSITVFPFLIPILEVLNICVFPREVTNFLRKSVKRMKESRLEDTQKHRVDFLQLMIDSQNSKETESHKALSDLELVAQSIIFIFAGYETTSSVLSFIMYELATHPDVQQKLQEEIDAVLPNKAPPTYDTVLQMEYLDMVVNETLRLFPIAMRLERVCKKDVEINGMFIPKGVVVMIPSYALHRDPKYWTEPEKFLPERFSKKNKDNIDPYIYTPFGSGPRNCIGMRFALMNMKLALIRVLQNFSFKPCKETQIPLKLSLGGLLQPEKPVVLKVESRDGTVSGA

[12] = Volume of distribution at steady state in iv dosed mouse; type: ADME, organism-based; settings: in vivo, read-out: Vdss
[13] = Half life in iv dosed rat; type: ADME, organism-based; settings: in vivo

EC50 (Bile acid receptor): 0.068 µM | bioavailability [1]: 7.7% | Vd [3]: 0.35 L/kg | clearance [4]: 3.42 L/h/kg | clearance [5]: 0.12 L/h/kg | XC50 [6]: > 10 µM | Selectivity ratio [7]: 35 | solubility [8]: 1 µg/mL (≈ 1.88 µM) | IC50 (Cytochrome P450 1A2): 23 µM | clearance [10]: 0.33 L/h/kg | XC50 [11]: > 10 µM | IC50 (Cytochrome P450 3A4): 4.6 µM | Vd [12]: 0.4 L/kg | half-life [13]: 24 min
SMILES: CC(C)c1onc(-c2c(Cl)cccc2Cl)c1COc1ccc(-c2ccc3c(C(=O)O)cccc3c2)cc1
Activity (Rattus norvegicus [2]): Active | Activity (Rattus norvegicus [9]): Active
